The source of these data is patent US5591821A (priority 1993, dated 1997).

For the assay, the target named is GVIA high affinity site, the N-type Ca^2+ channel (Rattus norvegicus, UniProt Q02294). In kind it is binding.
Sequence of GVIA high affinity site, the N-type Ca^2+ channel (Q02294 whole entry, looked up): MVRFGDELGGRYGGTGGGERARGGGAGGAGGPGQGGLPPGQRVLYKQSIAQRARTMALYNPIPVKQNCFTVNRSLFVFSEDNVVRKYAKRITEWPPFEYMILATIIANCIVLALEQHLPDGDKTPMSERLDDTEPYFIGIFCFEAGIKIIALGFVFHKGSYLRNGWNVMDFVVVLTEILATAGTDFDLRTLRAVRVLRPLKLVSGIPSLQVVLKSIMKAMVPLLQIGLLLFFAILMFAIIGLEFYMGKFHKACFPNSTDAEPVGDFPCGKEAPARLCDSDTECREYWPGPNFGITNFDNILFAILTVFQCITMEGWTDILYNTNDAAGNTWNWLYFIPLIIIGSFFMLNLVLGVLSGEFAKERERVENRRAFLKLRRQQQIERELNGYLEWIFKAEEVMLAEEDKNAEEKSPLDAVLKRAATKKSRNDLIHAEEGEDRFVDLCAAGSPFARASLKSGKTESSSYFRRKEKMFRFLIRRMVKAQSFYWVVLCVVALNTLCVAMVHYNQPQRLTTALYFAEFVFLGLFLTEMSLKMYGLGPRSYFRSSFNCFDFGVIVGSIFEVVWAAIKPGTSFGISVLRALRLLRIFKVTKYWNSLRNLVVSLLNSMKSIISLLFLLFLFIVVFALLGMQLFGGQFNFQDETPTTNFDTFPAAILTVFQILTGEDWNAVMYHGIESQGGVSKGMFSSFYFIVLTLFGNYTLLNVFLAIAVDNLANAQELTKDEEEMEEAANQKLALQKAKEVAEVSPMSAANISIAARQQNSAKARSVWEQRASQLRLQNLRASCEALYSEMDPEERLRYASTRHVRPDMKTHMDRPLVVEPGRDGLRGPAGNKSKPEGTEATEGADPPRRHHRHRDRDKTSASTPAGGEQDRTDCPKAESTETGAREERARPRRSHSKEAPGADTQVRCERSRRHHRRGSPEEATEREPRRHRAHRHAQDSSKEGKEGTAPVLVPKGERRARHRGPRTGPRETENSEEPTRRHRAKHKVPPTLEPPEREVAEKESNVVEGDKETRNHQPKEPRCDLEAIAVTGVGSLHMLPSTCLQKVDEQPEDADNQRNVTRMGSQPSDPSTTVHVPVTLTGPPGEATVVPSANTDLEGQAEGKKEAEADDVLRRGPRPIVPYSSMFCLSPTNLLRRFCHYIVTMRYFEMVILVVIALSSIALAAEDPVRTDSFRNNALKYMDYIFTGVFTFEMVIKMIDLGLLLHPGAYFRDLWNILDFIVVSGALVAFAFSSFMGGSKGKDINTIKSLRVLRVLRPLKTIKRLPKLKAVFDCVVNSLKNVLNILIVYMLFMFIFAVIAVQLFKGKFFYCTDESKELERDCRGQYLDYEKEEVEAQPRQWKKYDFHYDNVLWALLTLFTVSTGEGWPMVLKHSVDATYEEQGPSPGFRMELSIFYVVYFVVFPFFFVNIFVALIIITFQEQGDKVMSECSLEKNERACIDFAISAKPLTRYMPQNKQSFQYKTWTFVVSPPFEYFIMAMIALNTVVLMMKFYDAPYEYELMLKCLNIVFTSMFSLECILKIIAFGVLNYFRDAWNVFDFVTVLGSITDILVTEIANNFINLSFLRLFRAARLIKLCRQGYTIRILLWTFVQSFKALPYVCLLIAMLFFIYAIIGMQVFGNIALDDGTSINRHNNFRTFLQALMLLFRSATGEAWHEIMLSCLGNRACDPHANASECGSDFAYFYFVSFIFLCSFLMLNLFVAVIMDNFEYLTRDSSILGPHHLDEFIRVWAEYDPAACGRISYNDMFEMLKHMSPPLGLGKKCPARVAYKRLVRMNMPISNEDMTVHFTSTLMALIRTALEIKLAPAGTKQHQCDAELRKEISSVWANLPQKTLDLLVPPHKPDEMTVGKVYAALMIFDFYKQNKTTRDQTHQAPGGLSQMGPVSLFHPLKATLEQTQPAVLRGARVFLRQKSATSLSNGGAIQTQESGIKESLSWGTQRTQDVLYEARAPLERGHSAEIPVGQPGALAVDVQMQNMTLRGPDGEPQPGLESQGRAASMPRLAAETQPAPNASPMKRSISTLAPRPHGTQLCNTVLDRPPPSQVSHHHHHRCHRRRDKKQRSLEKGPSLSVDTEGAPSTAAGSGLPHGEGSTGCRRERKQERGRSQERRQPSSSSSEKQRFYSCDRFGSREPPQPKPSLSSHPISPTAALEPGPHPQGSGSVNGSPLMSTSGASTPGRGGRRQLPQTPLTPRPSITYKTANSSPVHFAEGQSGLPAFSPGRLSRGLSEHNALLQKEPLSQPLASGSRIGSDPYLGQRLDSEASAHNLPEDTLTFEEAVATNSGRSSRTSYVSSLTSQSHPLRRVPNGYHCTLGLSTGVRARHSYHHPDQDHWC

Turning to ω-agatoxin IVA, the “Competition for / displacement of 125I-GVIA binding” value was “did not”.
